# Test results from patent publication US9040673B2, “Synthesis and identification of novel RSK-specific inhibitors” (University of Virginia Patent Foundation, priority 2009, dated 2015).
# pEC50: −log10 of the molar value.
# Legend:
# p140, a RSK substrate [1] = test: PDB-induced p140 phosphorylation in MCF-10A cells (immunoblot); assay type: cell-based, human
# Procedure: (§1) To determine whether SL0101-1 inhibits RSK in intact cells, phosphorylation of p140, a RSK substrate of unknown function, was examined in a human breast cancer cell line, MCF-7. MCF-7 and MCF-10A cells were pre-incubated with vehicle, 50 μM U0126 or the indicated concentration of SL0101-1 for 3 hr (FIG. 8D). Cells were treated with 500 nM PDB for 30 min prior to lysis. Protein concentration of lysates was measured and lysates were electrophoresed, transferred and immunoblotted. […] Pre-incubation of cells with 100 μM SL0101-1 abrogates phorbol dibutyrate (PDB)-induced p140 phosphorylation as does 50 μM U0126, a MEK inhibitor.
# (§2) Cell Culture. For proliferation studies cells were seeded at 2500 to 5000 cells per well in 96 well tissue culture plates in the appropriate medium as described by American Type Culture Collection. After 24 hr, the medium was replaced with medium containing compound or vehicle as indicated. Cell viability was measured at indicated time points using CellTiter-Glo™ assay reagent (Promega) according to manufacturer's protocol. For in vivo inhibition studies, cells were seeded at 2.5×10^5 cells/well in 12 well cell culture clusters. After 24 hr, the cells were serum starved for 24 hr then incubated with compound or vehicle for 3 hr prior to a 30 min PDB stimulation. Cells were lysed as previously described (J. Biol. Chem. 273, 13317-13323 (1998)). […]
# MCF-7 cells = test: MCF-7 cell proliferation (CellTiter-Glo cell viability); assay type: cell-based, human
# LNCaP cells = test: LNCaP cell proliferation; assay type: cell-based, human; conditions: 50 μM (FIG. 8B)
# Procedure: FIGS. 8A-8D SL0101-1 inhibits the proliferation of cancer cells but not normal cells. […] Cell viability was measured at indicated time points. Proliferation assays were conducted using CellTiter-Glo Luminescent Cell Viability Assay (Promega), performed 44 hrs after treatment for FIGS. 8A &B and at indicated points for FIG. 8C. The data are expressed relative to time 0.
# as §2, with “(1998)). The lysates were normalized for total protein, electrophoresed and immunoblotted. For cell imaging, Ha-Ras-transformed NIH/3T3 cells were seeded on LABTEK II chamber slides (Nalge) at a density of 1×10^4 cells/well. After 24 hr, fresh medium was added the indicated compounds or vehicle.” for “(1998)).”
# p140, a RSK substrate [2] = test: p140 phosphorylation in LNCaP line (anti-RPM antibody); assay type: cell-based, human
# Procedure: The ability of SL0101-1 to inhibit the proliferation of the androgen-dependent human prostate line, LNCaP was tested. […] To investigate the RSK signal transduction pathway in the LNCaP line, a phosphospecific antibody to a RSK phosphorylation motif (RPM) was produced. Only a few downstream effectors of RSK have been identified and therefore, applicants anticipated that an anti-RPM antibody would be a very effective tool for identifying novel RSK substrates in vivo. An anti-RPM antibody has previously been reported that recognizes the RSK substrate, p140, a protein of unknown function. […] All lysates were normalized to each other using an anti-Ran antibody. Ran is used for normalization based on the observations that it is a general housekeeping protein, the activity or expression levels of which are not known to vary in any disease state.
# HUVEC cells = test: VEGF-induced capillary network formation in HUVEC cells; assay type: cell-based, human; conditions: 60 μM, 10 ng/ml VEGF, 20 hours
# Procedure: Interfering with tube formation is a characteristic common to anti-angiogenic treatments. HUVEC cells were seeded at a density of 1×10^5 cells per well in 24-well culture dishes coated in growth factor-reduced Matrigel (BD Biosciences). […] The cells were incubated at 37° C. for 20 hours. Images of the cells were captured for analysis of the capillary-like network.
# [3] = tested on: Ha-Ras transformed NIH/3T3 cells; test: proliferation of Ha-Ras transformed NIH/3T3 cells; assay type: cell-based
# Procedure: FIGS. 7A & 7B. SL0101-1 inhibition of cell proliferation is reversible. FIG. 7A: Ha-Ras-transformed cells were treated with vehicle or 50 μM SL0101-1. After 48 hr the medium was replaced and cells previously incubated with vehicle were maintained in vehicle. Cells that had previously been incubated with SL0101-1 were treated with either SL0101-1 or vehicle (washout). Cell viability was measured 48 hr later. FIG. 7B: Determination of siRNA to inhibit cancer cell proliferation. Duplex siRNAs to a sequence in the bluescript plasmid (Control), RSK1, RSK2 or RSK1 and RSK2 were transfected into MCF-7 cells. Medium was replaced 24 hr post-transfection and the cells incubated for an additional 48 hr prior to measuring cell viability.
# (§3) The importance of MAPK to proliferation and oncogenesis is well established. However, the role that RSK plays in these processes has not been examined. […] SL0101-1 produced striking morphology changes in the transformed cells but not in the parental cell line. The vehicle control treated Ha-Ras transformed cells were elongated whereas in response to SL0101-1 the cells became much larger and flatter, appearing more like the parental cells, or like Ha-Ras transformed cells treated with U0126.
# Cell Culture. […] Cell viability was measured at indicated time points using CellTiter-Glo™ assay reagent (Promega) according to manufacturer's protocol. […]
# p140, a RSK substrate [4] = test: PDB-induced p140 phosphorylation in MCF-7 cells (immunoblot); assay type: cell-based, human; conditions: 100 μM, 3 hr pre-incubation, 500 nM PDB 30 min
# Procedure: as §1, §2
# [5] = tested on: NIH/3T3 parental cell line; test: proliferation of parental NIH/3T3 cell line; assay type: cell-based
# Source text: as §3
# as §2, with “(1998)). The lysates were normalized for total protein, electrophoresed and immunoblotted.” for “(1998)).”
# MAPK, MEK, Raf and PKC = test: effect on upstream kinases of PDB-stimulated RSK phosphorylation in intact cells (immunoblot); assay type: cell-based, human
# Procedure: as §1, §2
smiles,measurement,setting,value
"CC(=O)O[C@@H]1[C@@H](OC(C)=O)[C@@H](O)[C@H](Oc2c(-c3ccc(O)cc3)oc3cc(O)cc(O)c3c2=O)O[C@H]1C [SL0101, kaempferol 3-O-(3″,4″-di-O-acetyl-α-L-rhamnopyranoside)]",PDB-induced p140 phosphorylation,"p140, a RSK substrate [1]",prevented the PDB-induced p140 phosphorylation
same,inhibition of MCF-7 cell growth,MCF-7 cells; 50 uM,similarly effective at inhibiting MCF-7 cell growth
same,proliferation of MCF-7 cells,MCF-7 cells; 50 μM (FIG. 8A),inhibited proliferation
same,pEC50,"MCF-7 cells; Homo sapiens, MCF7, read-out: EC50 of MCF-7 cell proliferation inhibition",~4.30
same,proliferation of LNCaP cells,LNCaP cells,completely inhibits the proliferation
same,phosphorylation of p140,"p140, a RSK substrate [2]",decrease the phosphorylation of p140
same,capillary-like network formation,HUVEC cells,indistinguishable from those treated with SU1498
same,growth rate of Ha-Ras transformed cells,[3],decreased the growth rate
same,reversibility of growth inhibition (washout),"[3]; 50 μM for 48 hr, then washout, viability 48 hr later",Removal of SL0101-1 resulted in growth of the transformed cells
same,PDB-induced p140 phosphorylation,"p140, a RSK substrate [4]",abrogates
same,proliferation of the parental line,[5],little effect on proliferation
same,phosphorylation of RSK2,"MAPK, MEK, Raf and PKC",does not effect the phosphorylation of RSK2
